In patent publication US20250257059A1, “PROTEIN TYROSINE PHOSPHATASE INHIBITORS AND USES THEREOF” (Nerio Therapeutics, Inc., priority 2022, published 2025):

Tests used:
[1] = test system: murine B16F10 melanoma cell line; test: B16F10 IFNγ-induced cellular growth inhibition assay (xCELLigence RTCA); format: cell-based; conditions: Mus musculus, B16-F10, 48 h, B16F10 cells, 1 ng/mL mouse IFNγ, AUC of growth curve, read-out: B16 IFNγ Mediated Growth Inhibition Assay: AVG IC50
Protocol: Compound activity was determined using an interferon gamma (IFNγ)-induced cellular growth inhibition assay with the murine B16F10 melanoma cell line on an Agilent xCELLigence Real-Time Cell Analysis platform (RTCA). RTCA E-Plate View 96 plates (Agilent, 300601010) were pre-equilibrated with 50 μL of assay media (DMEM+10% FBS, Gibco 10566-024, Gibco 10082-147) at 37° C. in a humidified incubator before taking an initial measurement of impedance (sweep). B16F10 cells cultured in assay media were dissociated with TrypLE Express (Gibco 12605-010) for five minutes at 37° C., diluted in 3 volumes of assay buffer, centrifuged for 5 minutes at 500×g at room temperature before diluting cells to 7,700 cells/mL in assay media, plating 130 μL/well (1,000 cells/well) in the inner 60 wells of the assay plate, and adding 150 μL of assay media to the outer wells of the plate. Cells were incubated at room temperature for 20 min to allow cells to settle before placing them in the xCELLigence reader and incubating overnight at 37° C., sweeping wells every 15 minutes. After 24 hours, well readings were paused, plates were removed from the incubator and compounds were added using a Tecan D300e dispenser. All wells were normalized to a final concentration of 0.5% DMSO. Following a 30 min incubation at 37° C., recombinant mouse IFNγ (R&D Systems™ 485MI100) was diluted to 10 ng/mL in assay media and 20 μL was added to assay wells (1 ng/mL final concentration). Assay plates were placed in the xCELLigence reader and swept every 15 minutes.

[2] = target: full-length human PTPN2 (TC45) (1-387) (Homo sapiens (Human), UniProt P17706); test: Enzymatic assay used to determine potency of PTPN2 inhibitors (full length PTPN2 DiFMUP assay); format: biochemical; conditions: 0.5 nM PTPN2, 100 μM DiFMUP, 30 min at room temperature
full-length human PTPN2 (TC45) (1-387), sequence (P17706 other isoform, or with tags, fused parts or gaps): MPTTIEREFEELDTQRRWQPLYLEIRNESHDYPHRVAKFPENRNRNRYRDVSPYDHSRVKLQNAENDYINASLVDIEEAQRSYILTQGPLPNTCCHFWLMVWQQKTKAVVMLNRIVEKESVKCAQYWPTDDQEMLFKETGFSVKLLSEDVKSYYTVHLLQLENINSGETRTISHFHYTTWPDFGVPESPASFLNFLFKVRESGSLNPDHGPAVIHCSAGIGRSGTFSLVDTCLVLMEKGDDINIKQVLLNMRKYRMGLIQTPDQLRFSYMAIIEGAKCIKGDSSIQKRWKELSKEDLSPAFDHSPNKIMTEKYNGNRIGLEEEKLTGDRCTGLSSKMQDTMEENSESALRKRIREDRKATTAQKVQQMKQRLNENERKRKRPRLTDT
Protocol: Compound activity was determined in an in vitro enzymatic assay using untagged, full-length human PTPN2 (TC45) (1-387) protein. PTPN2 was produced in E. coli as a GST-TEV fusion and the GST was removed by TEV digestion, followed by additional purification to yield full-length PTPN2 (SEQ ID 1). PTPN2 enzyme was diluted in assay buffer (50 mM HEPES pH7.5, 0.2 mM EDTA, 1 mM DTT, 0.02% Brij-35, 0.02% BSA) to a final concentration of 0.5 nM and added to black 384-well non-binding plates (Greiner, 781900). Compounds were subsequently added using a Tecan D300e dispenser. Following a 10 min incubation at room temperature, DiFMUP substrate (ThermoFisher, D22065) was added to a final concentration of 100 μM. Plates were transferred to a SpectraMax plate reader (Molecular Devices) and fluorescence intensity was measured (ex 358, em 455) after a 30 min incubation at room temperature. […] A four-parameter curve fit was used to determine IC50 values from % inhibition data.

SMILES	IC50 [1] [nM]	IC50 [2] [nM]
O=C1CN(c2c(O)cc(CC3CCN(CC4CCC4)C3)cc2F)S(=O)(=O)N1 (stereo not shown) [Example 22]	1230	10
O=C1CN(c2c(O)cc(CC3CCCNC3)cc2F)S(=O)(=O)N1 (stereo not shown) [Example 54]	25800	75
CC(C)CCN1CCCC(Cc2cc(O)c(N3CC(=O)NS3(=O)=O)c(F)c2)C1 (stereo not shown) [Example 41]	> 100000	47
O=C1CN(c2c(O)cc(CCN3CC4(CCCC4)C3)cc2F)S(=O)(=O)N1 [Example 114]	371	7
CN1CCCCC1Cc1ccc(O)c(N2CC(=O)NS2(=O)=O)c1F (stereo not shown) [Example 74, 5-(2-fluoro-6-hydroxy-3-((1-methylpiperidin-2-yl)methyl)phenyl)-1,2,5-thiadiazolidin-3-one 1,1-dioxide]	9290	161
O=C1CN(c2c(O)cc(CCN3CC(CC(F)(F)F)C3)cc2F)S(=O)(=O)N1 [Example 142]	542	3
CN1CCCC(Cc2cc(O)c(N3CC(=O)NS3(=O)=O)c(F)c2)CC1 (stereo not shown) [Example 60]	> 73000	24
O=C1CN(c2c(O)cc(CCN3CCC(C(F)(F)F)C3)cc2F)S(=O)(=O)N1 (stereo not shown) [Example 96]	680	2
CN1CCC(CCc2cc(O)c(N3CC(=O)NS3(=O)=O)c(F)c2)C1 (stereo not shown) [Example 61, 5-(2-fluoro-6-hydroxy-4-(2-(1-methylpyrrolidin-3-yl)ethyl)phenyl)-1,2,5-thiadiazolidin-3-one 1,1-dioxide]	> 41000	19
CC(C)CCN1CCCCC1Cc1ccc(O)c(N2CC(=O)NS2(=O)=O)c1F (stereo not shown) [Example 76]	8920	6
CCCCCN1CCC(Cc2cc(O)c(N3CC(=O)NS3(=O)=O)c(F)c2)C1 (stereo not shown) [Example 24]	5900	15
CC(C)CCN1CCCC1CCc1cc(O)c(N2CC(=O)NS2(=O)=O)c(F)c1 (stereo not shown) [Example 67]	> 100000	36
CC(C)CCC1CCN(CCc2cc(O)c(N3CC(=O)NS3(=O)=O)c(F)c2)C1 (stereo not shown) [Example 88]	1020	3
O=C1CN(c2c(O)cc(CC3CNC3)cc2F)S(=O)(=O)N1 [Example 69, 5-(4-(azetidin-3-ylmethyl)-2-fluoro-6-hydroxyphenyl)-1,2,5-thiadiazolidin-3-one 1,1-dioxide]	13600	15
O=C1CN(c2c(O)cc(C[C@H]3CCCNCC3)cc2F)S(=O)(=O)N1 (single isomer, unassigned) [Example 58]	> 100000	51
O=C1CN(c2c(O)cc(CC3CCN(Cc4ncco4)C3)cc2F)S(=O)(=O)N1 (stereo not shown) [Example 6]	> 100000	20
O=C1CN(c2c(O)cc(CCN3CC4(CCC4)C3)cc2F)S(=O)(=O)N1 [Example 124]	943	2
O=C1CN(c2c(O)cc(CC3CCCN(CC4CCCO4)C3)cc2F)S(=O)(=O)N1 (stereo not shown) [Example 43]	95900	63
CC1(C)CCN(CCc2cc(O)c(N3CC(=O)NS3(=O)=O)c(F)c2)C1 [Example 108]	129	2
CC1(F)CCN(CCc2cc(O)c(N3CC(=O)NS3(=O)=O)c(F)c2)C1 (stereo not shown) [Example 106]	256	2
CC(C)(C)CCN1CCC(Cc2cc(O)c(N3CC(=O)NS3(=O)=O)c(F)c2)C1 (stereo not shown) [Example 23]	4330	14
CC(C)(C)CCN1CCCC(Cc2cc(O)c(N3CC(=O)NS3(=O)=O)c(F)c2)C1 (stereo not shown) [Example 35]	13000	31
CCCCCCN1CCCC(Cc2cc(O)c(N3CC(=O)NS3(=O)=O)c(F)c2)C1 (stereo not shown) [Example 36]	81000	22
CCCC1CCCN1Cc1cc(O)c(N2CC(=O)NS2(=O)=O)c(F)c1 (stereo not shown) [Example 70, 5-(2-fluoro-6-hydroxy-4-((2-propylpyrrolidin-1-yl)methyl)phenyl)-1,2,5-thiadiazolidin-3-one 1,1-dioxide]	> 45000	204
O=C1CN(c2c(O)cc(CC3CCN(Cc4ccoc4)C3)cc2F)S(=O)(=O)N1 (stereo not shown) [Example 12]	4340	12
O=C1CN(c2c(O)cc(CC3CCN(CCN4CCCCC4)C3)cc2F)S(=O)(=O)N1 (stereo not shown) [Example 5]	84600	7
